Reference: patent US9321756B2, “Azole compounds as PIM inhibitors” (priority 2011, dated 2016)
pIC50: −log10 of the molar value. Where two headings read alike, the source gives them in different places.

Tests used:
Format in all cases: biochemical
[1] = biological target: full length recombinant Pim-3 (Homo sapiens (Human), UniProt Q86V86); assay: Pim enzyme assay (HTRF, phosphorylation of biotinylated-BAD (S112) peptide), Pim-3; settings: Pim-3 enzyme assay; read-out: Pim3 IC50
Description: Pim-3 was purchased from Millipore (UK).
The phosphorylation of biotinylated-BAD (S112) peptide by full length recombinant Pim-1, Pim-2, or Pim-3 protein was detected with streptavidin:Allophycocyanin (APC) conjugate and a europium (Eu) labeled antibody directed against phosphorylated-BAD (S112). […] The fluorescence is directly proportional to the amount of phosphorylated BAD peptide present in the reaction.
A reference compound was included on each assay plate in order to validate that plate; on one plate of every assay run, two additional reference compounds were included.
The final buffer conditions were as follows: 60 mM Hepes, pH 7.0, 0.05% BSA, 2 mM DTT. Incubations were carried out at RT (22° C.) for 2 h for Pim-1, 1 h and 30 min for Pim-3, and 45 min for Pim-2. The reaction was then stopped by the addition of 3 mM EDTA, and fluorescence was measured by an HTRF® Rubystar microplate reader. For each plate, percent of control (POC) values were calculated for each well. Values for the IC50 IP were estimated using a standard 4-parameter logistic model.

[2] = biological target: full length recombinant Pim-1 (Homo sapiens (Human), UniProt P11309); assay: Pim enzyme assay (HTRF, phosphorylation of biotinylated-BAD (S112) peptide), Pim-1
Sequence of full length recombinant Pim-1 (P11309 whole entry): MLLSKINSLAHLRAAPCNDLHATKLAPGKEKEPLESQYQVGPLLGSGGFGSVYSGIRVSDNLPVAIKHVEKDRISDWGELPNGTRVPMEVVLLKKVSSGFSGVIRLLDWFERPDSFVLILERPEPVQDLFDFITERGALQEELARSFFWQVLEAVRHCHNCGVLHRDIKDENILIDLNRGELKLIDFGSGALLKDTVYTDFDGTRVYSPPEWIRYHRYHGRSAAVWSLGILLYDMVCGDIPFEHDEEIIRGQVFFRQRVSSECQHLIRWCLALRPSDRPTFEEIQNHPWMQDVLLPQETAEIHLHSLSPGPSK

[3] = biological target: full length recombinant Pim-2 (Homo sapiens (Human), UniProt Q9P1W9); assay: Pim enzyme assay (HTRF, phosphorylation of biotinylated-BAD (S112) peptide), Pim-2; settings: read-out: Pim2_IC50
Sequence of full length recombinant Pim-2 (Q9P1W9 whole entry): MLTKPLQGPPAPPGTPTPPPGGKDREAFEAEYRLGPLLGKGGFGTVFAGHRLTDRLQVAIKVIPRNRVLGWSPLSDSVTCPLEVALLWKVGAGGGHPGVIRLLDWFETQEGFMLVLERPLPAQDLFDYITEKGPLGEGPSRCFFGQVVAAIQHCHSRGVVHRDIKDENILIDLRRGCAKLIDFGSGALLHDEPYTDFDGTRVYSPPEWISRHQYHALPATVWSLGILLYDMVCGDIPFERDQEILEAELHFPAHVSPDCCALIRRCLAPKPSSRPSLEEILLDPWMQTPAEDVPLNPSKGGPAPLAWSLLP

[4] = Pim-1 enzyme assay, read-out: Pim_1_IC50
[5] = HTRF, 10-point curve, high dose 1 uM, 2 h at RT, read-out: Pim_1_IC50
[6] = HTRF, 10-point curve, high dose 1 uM, 45 min at RT

| Compound | pIC50 [1] | pIC50 [2, 4] | pIC50 ([3]; Pim-2 enzyme assay) | pIC50 [3] | pIC50 [2, 5] | pIC50 [3, 6] | pIC50 [2] |
| --- | --- | --- | --- | --- | --- | --- | --- |
| Nc1nnc(-c2ccc3[nH]cc(-c4ncccn4)c3c2)o1 [Example 93, 5-(3-(2-pyrimidinyl)-1H-indol-5-yl)-1,3,4-oxadiazol-2-amine] | 6.85 | 6.57 | 6.95 |  |  |  |  |
| CC(C)Oc1cccc(-c2c[nH]c3ccc(-c4nnc(N)o4)nc23)c1 [Example 126, 5-(3-(3-(1-methylethoxy)phenyl)-1H-pyrrolo[3,2-b]pyridin-5-yl)-1,3,4-oxadiazol-2-amine] | 7.07 | 6.57 | 6.61 |  |  |  |  |
| Nc1nnc(-c2ccc3[nH]cc(-c4c(F)cccc4F)c3c2)s1 [Example 138, 5-(3-(2,6-difluorophenyl)-1H-indol-5-yl)-1,3,4-thiadiazol-2-amine] | 7.01 | 6.70 | 6.46 |  |  |  |  |
| CNc1nnc(-c2ccc3[nH]cc(-c4cccc(-n5ccnc5C)n4)c3c2)s1 [Example 234, N-methyl-5-(3-(6-(2-methyl-1H-imidazol-1-yl)-2-pyridinyl)-1H-indol-5-yl)-1,3,4-thiadiazol-2-amine] | 7.73 | 6.97 | 6.91 |  |  |  |  |
| NC1CCN(c2nnc(-c3ccc4[nH]cc(-c5ccccc5F)c4c3)s2)CC1 [Example 144, 1-(5-(3-(2-fluorophenyl)-1H-indol-5-yl)-1,3,4-thiadiazol-2-yl)-4-piperidinamine] | 6.79 | 6.57 | 5.77 |  |  |  |  |
| c1ccc(-c2nnc(-c3ccc4[nH]cc(-c5nccc(C6CC6)n5)c4c3)o2)cc1 [Example 255, 3-(4-cyclopropyl-2-pyrimidinyl)-5-(5-phenyl-1,3,4-oxadiazol-2-yl)-1H-indole] | 6.91 | 6.49 | 6.17 |  |  |  |  |
| CC(=O)Nc1ccc(CNc2nnc(-c3ccc4[nH]cc(-c5ccc(F)cc5F)c4c3)s2)cc1 [Example 148, N-(4-(((5-(3-(2,4-difluorophenyl)-1H-indol-5-yl)-1,3,4-thiadiazol-2-yl)amino)methyl)phenyl)acetamide] | 5.90 | 6.11 | < 5.52 |  |  |  |  |
| CNc1nnc(-c2ccc3[nH]cc(-c4cnc5ccccc5c4)c3c2)s1 [Example 217, N-methyl-5-(3-(3-quinolinyl)-1H-indol-5-yl)-1,3,4-thiadiazol-2-amine] | 6.74 | 6.63 | 5.79 |  |  |  |  |
| Nc1nnc(-c2ccc3[nH]cc(-c4cccc(-n5ccccc5=O)n4)c3c2)s1 [Example 185, 6′-(5-(5-amino-1,3,4-thiadiazol-2-yl)-1H-indol-3-yl)-2H-1,2′-bipyridin-2-one] | 7.17 | 6.65 | 6.61 |  |  |  |  |
| COc1cncc(-c2c[nH]c3ccc(-c4nnc(N)o4)nc23)c1 [Example 10, 5-(3-(5-methoxypyridin-3-yl)-1H-pyrrolo[3,2-b]pyridin-5-yl)-1,3,4-oxadiazol-2-amine] | 6.19 | 5.95 | 6.24 |  |  |  |  |
| CNc1nnc(-c2ccc3[nH]cc(-c4cccnc4)c3c2)s1 [Example 220, N-methyl-5-(3-(3-pyridinyl)-1H-indol-5-yl)-1,3,4-thiadiazol-2-amine] | 6.56 | 6.20 | 5.91 |  |  |  |  |
| COc1ccc(CNc2nnc(-c3ccc4[nH]cc(-c5cncc(C6CC6)n5)c4c3)o2)cc1 [Example 36, 5-(3-(6-Cyclopropylpyrazin-2-yl)-1H-indol-5-yl)-N-(4-methoxybenzyl)-1,3,4-oxadiazol-2-amine 2,2,2-trifluoroacetate] | 7.94 | 7.37 | 6.67 |  |  |  |  |
| Nc1nnc(-c2ccc3[nH]cc(-c4cnc(OC5CCCC5)cn4)c3c2)s1 [Example 195, 5-(3-(5-(cyclopentyloxy)-2-pyrazinyl)-1H-indol-5-yl)-1,3,4-thiadiazol-2-amine] | 6.30 | 6.02 | 5.87 |  |  |  |  |
| Nc1ncc(-c2ccc3[nH]cc(-c4cnc5ccccc5c4)c3c2)s1 [Example 20, 5-(3-(quinolin-3-yl)-1H-indol-5-yl)thiazol-2-amine] | 6.57 | 6.55 |  | 5.57 |  |  |  |
| CC(Nc1nnc(-c2ccc3[nH]cc(-c4ccccn4)c3c2)o1)c1ccccc1 (centres unmarked) [Example 267, N-(1-phenylethyl)-5-(3-(2-pyridinyl)-1H-indol-5-yl)-1,3,4-oxadiazol-2-amine] | 7.25 | 7.01 | 6.64 |  |  |  |  |
| Cc1nc(-c2c[nH]c3ccc(-c4nnc(N)s4)cc23)ccc1F [Example 191, 5-(3-(5-fluoro-6-methyl-2-pyridinyl)-1H-indol-5-yl)-1,3,4-thiadiazol-2-amine] | 6.84 |  |  |  |  |  |  |

| Compound | pIC50 [1] | pIC50 [2, 4] | pIC50 ([3]; Pim-2 enzyme assay) | pIC50 [3] | pIC50 [2, 5] | pIC50 [3, 6] | pIC50 [2] |
| --- | --- | --- | --- | --- | --- | --- | --- |
| CNc1nnc(-c2ccc3[nH]cc(-c4ccc(-c5cccs5)s4)c3c2)s1 [Example 241, 5-(3-(2,2′-bithiophen-5-yl)-1H-indol-5-yl)-N-methyl-1,3,4-thiadiazol-2-amine] | 6.38 | 5.66 | < 5.00 |  |  |  |  |
| CNC(=O)c1ccnc(-c2c[nH]c3ccc(-c4nnc(NC(C)C)o4)cc23)n1 [Example 282, N-methyl-2-(5-(5-((1-methylethyl)amino)-1,3,4-oxadiazol-2-yl)-1H-indol-3-yl)-4-pyrimidinecarboxamide 2,2,2-trifluoroacetate] |  |  |  |  | 6.29 | 6.19 |  |
| CC(C)c1ccnc(-c2c[nH]c3ccc(-c4nnc(NCC#N)o4)cc23)n1 [Example 45, 2-((5-(3-(4-isopropylpyrimidin-2-yl)-1H-indol-5-yl)-1,3,4-oxadiazol-2-yl)amino)acetonitrile] |  | 8.42 | 8.55 |  |  |  |  |
| CC(C)Nc1cncc(-c2c[nH]c3ccc(-c4nsc(N)n4)cc23)n1 [Example 66, 3-(3-(6-(isopropylamino)pyrazin-2-yl)-1H-indol-5-yl)-1,2,4-thiadiazol-5-amine] |  | 7.70 | 6.19 |  |  |  |  |
| COc1nc(-c2c[nH]c3ccc(-c4nnc(NC(C)C)o4)cc23)cc(=O)[nH]1 [Example 298, 2-methoxy-6-(5-(5-((1-methylethyl)amino)-1,3,4-oxadiazol-2-yl)-1H-indol-3-yl)-4(3H)-pyrimidinone] |  |  |  |  | 7.80 | 7.61 |  |
| CC(C)Nc1nnc(-c2ccc3[nH]cc(-c4nccc(OC(C)C)n4)c3c2)o1 [Example 60, 5-(3-(4-isopropoxypyrimidin-2-yl)-1H-indol-5-yl)-N-isopropyl-1,3,4-oxadiazol-2-amine] |  | 7.70 | 7.87 |  |  |  |  |
| CC(C)Nc1nnc(-c2ccc3[nH]cc(-c4nccc(N5CCN(C)C(=O)C5)n4)c3c2)o1 [Example 61, 4-(2-(5-(5-(isopropylamino)-1,3,4-oxadiazol-2-yl)-1H-indol-3-yl)pyrimidin-4-yl)-1-methylpiperazin-2-one] |  | 7.34 | 7.33 |  |  |  |  |
| Fc1cccc(Nc2nnc(-c3ccc4[nH]cc(-c5nccc(C6CC6)n5)c4c3)o2)c1 [Example 269, 5-(3-(4-cyclopropyl-2-pyrimidinyl)-1H-indol-5-yl)-N-(3-fluorophenyl)-1,3,4-oxadiazol-2-amine] |  | 6.44 | 6.35 |  |  |  |  |
| CC(C)Nc1nnc(-c2ccc3[nH]cc(-c4ncc(C(N)=O)s4)c3c2)o1 [Example 276, 2-(5-(5-((1-methylethyl)amino)-1,3,4-oxadiazol-2-yl)-1H-indol-3-yl)-1,3-thiazole-5-carboxamide] |  |  |  |  | 6.95 | 6.50 |  |
| CNc1nnc(-c2ccc3[nH]cc(-c4nccc(-c5ccccc5)n4)c3c2)s1 [Example 131, N-methyl-5-(3-(4-phenyl-2-pyrimidinyl)-1H-indol-5-yl)-1,3,4-thiadiazol-2-amine] |  | 7.05 | 7.45 |  |  |  |  |
| COc1nc(-c2c[nH]c3ccc(-c4nnc(NC(C)(C)C)o4)cc23)ncc1F [Example 55, N-tert-butyl-5-(3-(5-fluoro-4-methoxypyrimidin-2-yl)-1H-indol-5-yl)-1,3,4-oxadiazol-2-amine 2,2,2-trifluoroacetate] |  |  | 7.54 |  |  |  | 8.06 |
| CC(C)(C)Nc1nnc(-c2ccc3[nH]cc(-c4ncc(C(N)=O)s4)c3c2)o1 [Example 277, 2-(5-(5-(tert-butylamino)-1,3,4-oxadiazol-2-yl)-1H-indol-3-yl)-1,3-thiazole-5-carboxamide] |  |  |  |  | 7.24 | 6.41 |  |
| CC(C)(C)Nc1nnc(-c2ccc3[nH]cc(-c4nccc(C(N)=O)n4)c3c2)o1 [Example 273, 2-(5-(5-(tert-butylamino)-1,3-4-oxadiazol-2-yl)-1H-indol-3-yl)-4-pyrimidinecarboxamide] |  | 7.93 | 7.55 |  |  |  |  |
| CC(C)Nc1nnc(-c2ccc3[nH]cc(-c4cncc(C(=O)N(C)C)c4)c3c2)o1 [Example 296, N,N-dimethyl-5-(5-(5-((1-methylethyl)amino)-1,3,4-oxadiazol-2-yl)-1H-indol-3-yl)-3-pyridinecarboxamide] |  |  |  |  | < 6.00 | < 6.00 |  |
| Nc1nnc(-c2ccc3[nH]cc(-c4cc(C(F)(F)F)ncn4)c3c2)o1 [Example 95, 5-(3-(6-(trifluoromethyl)-4-pyrimidinyl)-1H-indol-5-yl)-1,3,4-oxadiazol-2-amine] |  | < 6.00 | 6.08 |  |  |  |  |
